# Target: T1, Recombinant Hepatic Lipase (Homo sapiens, UniProt P11150)
# T1 construct: made in house; host or cells: AV12 cells
# T1 sequence (P11150 23-499): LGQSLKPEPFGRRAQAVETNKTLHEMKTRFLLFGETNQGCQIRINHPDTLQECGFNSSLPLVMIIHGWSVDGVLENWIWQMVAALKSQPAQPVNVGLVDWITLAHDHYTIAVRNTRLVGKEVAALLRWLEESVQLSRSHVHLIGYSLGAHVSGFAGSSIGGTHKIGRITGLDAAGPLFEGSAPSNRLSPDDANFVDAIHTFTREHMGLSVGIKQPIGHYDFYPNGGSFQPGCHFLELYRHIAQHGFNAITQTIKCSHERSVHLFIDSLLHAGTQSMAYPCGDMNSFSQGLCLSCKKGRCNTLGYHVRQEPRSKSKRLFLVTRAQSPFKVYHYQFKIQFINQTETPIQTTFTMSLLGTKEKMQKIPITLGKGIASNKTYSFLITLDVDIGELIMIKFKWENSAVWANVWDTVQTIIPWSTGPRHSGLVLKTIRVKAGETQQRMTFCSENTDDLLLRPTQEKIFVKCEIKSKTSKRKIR
# Assay: Hepatic Lipase Phospholipase Assay
# Format: biochemical
# Details: ThioPEG substrate, DTNB read at 412 nm, pH 8.3, 37° C., HL 12.5 nM
# Procedure: Hepatic Lipase Phospholipase Assay
# Efficacy was determined by testing various compounds of the invention in a hepatic lipase and/or endothelial lipase assay discussed below, and disclosed in U.S. patent application Ser. No. 09/609, 871 filed Jul. 3, 2000 incorporated herein in its entirety for U.S Patent Office purposes.
# • Substrate Buffer A: 100 mM Hepes, pH 8.3 at 37° C. • Substrate Buffer B: 100 mM Hepes, pH 8.3 at 37° C. with 6.83 mM Triton X100 • ThioPEG: Molecular wt. of 540 • Recombinant Hepatic Lipase • Thiophospholipid: about 0.42 mM thiophospholipid in chloroform • DTNB Solution: about […] DTNB in DMSO (dimethyl sulfoxide) Hepes Buffer A
# For Hepes Buffer A, there is 2.4 g Hepes/100 mL water. Therefore 36 grams of Hepes is dissolved in 1500 mL of water. The mix solution's pH is adjusted to pH83 at 37° C. and brought up to 1500 mL with water. 500 mL of Buffer A is retained for the Protein Buffer.
# To the remaining 1000 mL of Hepes Buffer A, 4.49 g of Triton X-100 is added and then the combination mixed on a stir plate. It is optimal that stock Buffer A not be too cold or Triton X-100 will take a long time to go into solution
# For 0.42 mM substrate stock, use 0.227 mg of thioPEG/mL of Substrate Buffer B. Approximately 20 mg of sn-1 thiol substituted Phosphatidyl Ethylene Glycol (see Examples for preparation method) is weighed into a vial, such as a scintillation vial. Enough chloroform should be added to make a 2.043 mg/mL solution. Sonicate the solution briefly until well dissolved. Next, pipette 1 mL of chloroform/substrate solution into each scintillation vial. This should give enough substrate for one full 96 well plate. Each vial is dried with nitrogen until solvent removed, swirling each vial simultaneously such that a thin film of substrate will be easily reconstituted in each buffer. Each vial is then frozen.
# Daily stock preparation is-performed for 9 mL of substrate (one microtiter plate). On the day of the assay, the substrate vial is removed from the freezer and combined with 9 mL of pre-warmed (37° C.) substrate buffer (the final concentration is 0.227 mg/mL). Place the buffer in a 37° C. water bath. Sonicate for 5 minutes or vortex until solution is clear before use.
# The enzyme is stored at −80° C. in 100 or 50 μL portions. A 0.406 mg/mL recombinant hepatic lipase and/or endothelial lipase stock requires a 50-fold dilution. Therefore, to a 50 μl or 100 μl enzyme aliquot, 2450 μl or 4900 μl, respectively, of substrate Buffer A (protein buffer) should be added. The enzyme should then be stored on ice until ready to use. The protein concentration of enzyme is about 0.406 mg/mL.
# To make a 20 mg/mL stock solution, 2-3 mg of DTNB is weighed and then mixed with an appropriate amount of 100% DMSO (dimethyl sulfoxide) to make the desired concentration. This mixture is sonicated for five minutes.
# The above solution should be diluted 10 fold with substrate Buffer B (concentration now 2 mg/mL). Then to the thioPEG substrate solution, add 60 μl of dilute DTNB per mL of thioPEG substrate solution. Thus for 9 mL of substrate, 540 microliters of dilute DTNB (final concentration in substrate solution=0.11 mg/mL).
# The test compound is dissolved in pure DMSO at […]. As shown below in Table 2, assay concentrations are 10, 1, 0.1, 0.33, 0.011, 0.0037, 0.0012 and 0.00041 μM.
# Using a spectrometer, DTNB is used as a thiol coloring reagent with an incubator temperature of 37° C. Substrate Buffer B is placed in a 37° C. water bath to pre-warm. The substrate is removed from the freezer and 9 mL of substrate Buffer B, 100 mM Hepes, 6.83 mM Tx-100) is added, sonicated for 5 min. and then kept in a 37° C. water bath. Dilutions of the test compound are next made in preparation for assay.
# 10 μl of the diluted test compound are transferred via pipette into the wells. Control wells receive 10 μl each of 10% DMSO and enzyme solution, while blank wells receive 10 microliters of 10% DMSO and 10 microliters of saline (no enzyme). […]
row,IC50,Compound
1,0.532 ± 0.01 µM,CCCCCNC(=O)n1sc2cc(Cl)ccc2c1=O
2,0.724 ± 0.016 µM,CCCCCCNC(=O)n1sc2ccccc2c1=O
3,0.879 ± 0.024 µM,CCCCCNC(=O)n1sc2ccccc2c1=O [drawing 9]
4,0.933 ± 0.034 µM,CCCCCCCCCCCCNC(=O)n1sc2ccccc2c1=O
5,0.757 ± 0.018 µM,CCCCCCCNC(=O)n1sc2ccccc2c1=O
6,0.622 ± 0.019 µM,CC(C)CCCCNC(=O)n1sc2ccccc2c1=O
7,0.333 ± 0.008 µM,CCCCCCNC(=O)n1sc2cc(Cl)ccc2c1=O

# Further lines, the compound ahead of its results:
row,Compound,IC50
1,Cc1ccc(CNC(=O)n2sc3ccccc3c2=O)cc1,0.671 ± 0.018 µM
2,O=C(NCc1ccccc1)n1sc2cc(Cl)ccc2c1=O,0.893 ± 0.048 µM
3,O=C(NCCCCc1ccccc1)n1sc2ccccc2c1=O [drawing 21],0.458 ± 0.016 µM
4,CC(C)NC(=O)n1sc2cc(Cl)ccc2c1=O,0.626 ± 0.02 µM
5,Cc1cccc(C(C)C)c1CNC(=O)n1sc2ccccc2c1=O [drawing 19],0.238 ± 0.013 µM
6,CCc1cccc(C)c1CNC(=O)n1sc2ccccc2c1=O [drawing 18],0.237 ± 0.004 µM
7,O=C(NC1CCCCC1)n1sc2cc(Cl)ccc2c1=O,0.419 ± 0.007 µM
8,Cc1cccc(CNC(=O)n2sc3ccccc3c2=O)c1,0.409 ± 0.014 µM
9,O=C(NCCCc1ccccc1)n1sc2ccccc2c1=O [drawing 20],0.43 ± 0.019 µM
10,Cc1ccccc1CNC(=O)n1sc2ccccc2c1=O,0.183 ± 0.006 µM
11,O=C(NCCCCC1CCCCC1)n1sc2ccccc2c1=O [drawing 22],0.482 ± 0.021 µM
12,CCCCCCCCNC(=O)n1sc2ccccc2c1=O,0.649 ± 0.017 µM

# Test system: not given
# Assay: not given
# Details: not given
row,melting point,Compound
1,123 to 124 °C,"CCNC(=O)n1sc2ccccc2c1=O [Example 1, 3-Oxo-3H-benzo[d]isothiazole-2-carboxylic acid ethylamide]"
2,90 to 91 °C,"CCCNC(=O)n1sc2ccccc2c1=O [Example 2, 3-Oxo-3H-benzo[d]isothiazole-2-carboxylic acid propylamide]"
3,42 to 44 °C,"CCCCCNC(=O)n1sc2ccccc2c1=O [Example 4, 3-Oxo-3H-benzo[d]isothiazole-2-carboxylic acid pentylamide]"

# Further lines, the compound ahead of its results:
row,Compound,melting point
1,"O=C(NCCCCc1ccccc1)n1sc2ccccc2c1=O [Example 18, 3-Oxo-3H-benzo[d]isothiazole-2-carboxylic acid (4-phenyl-butyl)-amide]",119 to 120 °C
2,"CCc1cccc(C)c1CNC(=O)n1sc2ccccc2c1=O [Example 13, 3-Oxo-3H-benzo[d]isothiazole-2-carboxylic acid 2-ethyl-6-methyl-benzylamide]",102 to 104 °C
3,"C=CCNC(=O)n1sc2ccccc2c1=O [Example 3, 3-Oxo-3H-benzo[d]isothiazole-2-carboxylic acid allylamide]",116 to 119 °C
4,"O=C(NCCCc1ccccc1)n1sc2ccccc2c1=O [Example 17, 3-Oxo-3H-benzo[d]isothiazole-2-carboxylic acid (3-phenyl-propyl)-amide]",109 to 111 °C
5,"O=C(NCCc1ccccc1)n1sc2ccccc2c1=O [Example 15, 3-Oxo-3H-benzo[d]isothiazole-2-carboxylic acid phenethylamide]",153 to 155 °C
6,"Cc1cccc(C(C)C)c1CNC(=O)n1sc2ccccc2c1=O [Example 14, 3-Oxo-3H-benzo[d]isothiazole-2-carboxylic acid 2-isopropyl-6-methyl-benzylamide]",102 to 103 °C
7,"O=C(NCCCCC1CCCCC1)n1sc2ccccc2c1=O [Example 19, 3-Oxo-3H-benzo[d]isothiazole-2-carboxylic acid (4-cyclohexyl-butyl)-amide]",76 to 78 °C

# Source: patent publication US7595403B2, “Benzisothiazol-3-one-carboxylic acid amides as phospholipase inhibitors” (Eli Lilly and Company, priority 2003, dated 2009)
